{"source": "patent US20240000749A1", "about": "“SOLID FORMULATION” (Janssen Pharmaceuticals, Inc., priority 2020, published 2024)", "format_in_all_cases": "physicochemical", "key": {"[1]": {"assay": "Stability of API, SD1 powder and 10 mg SD1 tablets in HDPE bottles", "parameters": "key to Appearance: “T1”: white powder; “T2”: white or off white round tablet", "details": "Table 6", "description": "Stability of the API, SD1 powder as well as the tablets (10 mg strength) comprising SD1 was tested by placing the tablets in High-density polyethylene (HDPE) bottles under stressed conditions as described in column 2 of Table 6."}, "[2]": {"assay": "Equilibrium solubility determined by UPLC"}, "[3]": {"assay": "In vitro 2-phase (SGF/FaSSIF) miniaturized dissolution of solid dispersion films", "details": "SGF-FaSSIF, 37° C.", "description": "In vitro, 2-phase (SGF/FaSSIF) miniaturized dissolution was performed, where the amount of dissolved API was monitored as a function of time. Before starting the dissolution assay, the films were stored at room temperature, for one day for the first screen and for 3 days for the second screen. By doing so, most of the residual solvent was evaporated. Actual dissolution experiments were performed in 96 1 mL glass vials using the Hamilton STAR plus liquid handling platform for both sampling and sample preparation. Before addition to the films, the media was preheated to 37° C. 300 μL of preheated SGF (37° C., pH 1.3) was then added to the solid dispersions. After 15 minutes of incubation in SGF, 600 μL of preheated concentrated FaSSIF (37° C., pH 10.5) was added to the samples. The addition of this concentrated FaSSIF to SGF results in a medium with a similar composition to the typical FaSSIF medium used in 1-phase dissolution studies. At predetermined time intervals (11, 24, 34, 49, 79, 139 minutes), aliquots were withdrawn from the dissolution media and filtered through a 0.45 μm GHP membrane filter. Subsequently, the filtered solutions were quantitatively diluted with N-methyl pyrrolidone (NMP) to prevent possible precipitation. The amount of dissolved API was determined by UPLC/UV-Vis analysis. Experiments were performed in duplicate for each formulation per screen. […]"}, "[4]": {"assay": "Approximate solubility screening in organic solvents at ambient temperature", "details": "organic solvent or mixture, thermodynamic from solid, read-out: S (solubility)", "excerpt": "To screen appropriate solvent for spray drying, approximate solubility of starting material was estimated in different organic solvents at ambient temperature."}, "[5]": {"assay": "Stability of API, SD2 powder and 10 mg SD2 tablets in HDPE bottles", "parameters": "key to Appearance: “T1”: white powder; “T2”: white or off white round tablet", "details": "Table 8", "description": "Stability of the API, SD2 as well as the tablet (10 mg strength) comprising SD2 was tested by placing the tablets in HDPE bottles under stressed conditions as described in column 2 of Table 7."}}, "note": "Read-outs that look alike come from different tables or passages of the source.", "data": [{"smiles": "COc1cc(NC(C(=O)c2c[nH]c3ccc(OC(F)(F)F)cc23)c2ccc(Cl)cc2OC)cc(S(C)(=O)=O)c1", "note": "(centres unmarked) [API]", "values": [{"measurement": "Appearance", "setting": "[1]; 40° C./75% RH (closed), 1 M", "result": "T1"}, {"measurement": "Purity (%)", "setting": "[1]; 40° C./75% RH (closed), 1 M", "result": 98.96, "unit": "%"}, {"measurement": "Total impurity (%)", "setting": "[1]; 40° C./75% RH (closed), 1 M", "result": 1.04, "unit": "%"}, {"measurement": "Appearance", "setting": "[1]; 40° C./75% RH (closed), 2 M", "result": "T1"}, {"measurement": "Purity (%)", "setting": "[1]; 40° C./75% RH (closed), 2 M", "result": 98.94, "unit": "%"}, {"measurement": "Total impurity (%)", "setting": "[1]; 40° C./75% RH (closed), 2 M", "result": 1.06, "unit": "%"}, {"measurement": "Appearance", "setting": "[1]; 40° C./75% RH (closed), 2 W", "result": "T1"}, {"measurement": "Purity (%)", "setting": "[1]; 40° C./75% RH (closed), 2 W", "result": 98.95, "unit": "%"}, {"measurement": "Total impurity (%)", "setting": "[1]; 40° C./75% RH (closed), 2 W", "result": 1.05, "unit": "%"}, {"measurement": "Appearance", "setting": "[1]; 40° C./75% RH (closed), 3 M", "result": "T1"}, {"measurement": "Purity (%)", "setting": "[1]; 40° C./75% RH (closed), 3 M", "result": 98.95, "unit": "%"}, {"measurement": "Total impurity (%)", "setting": "[1]; 40° C./75% RH (closed), 3 M", "result": 1.05, "unit": "%"}, {"measurement": "Appearance", "setting": "[1]; 40° C./75% RH (open), 1 M", "result": "T1"}, {"measurement": "Purity (%)", "setting": "[1]; 40° C./75% RH (open), 1 M", "result": 98.94, "unit": "%"}, {"measurement": "Total impurity (%)", "setting": "[1]; 40° C./75% RH (open), 1 M", "result": 1.06, "unit": "%"}, {"measurement": "Appearance", "setting": "[1]; 40° C./75% RH (open), 2 M", "result": "T1"}, {"measurement": "Purity (%)", "setting": "[1]; 40° C./75% RH (open), 2 M", "result": 98.96, "unit": "%"}, {"measurement": "Total impurity (%)", "setting": "[1]; 40° C./75% RH (open), 2 M", "result": 1.04, "unit": "%"}, {"measurement": "Appearance", "setting": "[1]; 40° C./75% RH (open), 2 W", "result": "T1"}, {"measurement": "Purity (%)", "setting": "[1]; 40° C./75% RH (open), 2 W", "result": 98.95, "unit": "%"}, {"measurement": "Total impurity (%)", "setting": "[1]; 40° C./75% RH (open), 2 W", "result": 1.05, "unit": "%"}, {"measurement": "Appearance", "setting": "[1]; 40° C./75% RH (open), 3 M", "result": "T1"}, {"measurement": "Purity (%)", "setting": "[1]; 40° C./75% RH (open), 3 M", "result": 98.96, "unit": "%"}, {"measurement": "Total impurity (%)", "setting": "[1]; 40° C./75% RH (open), 3 M", "result": 1.04, "unit": "%"}, {"measurement": "solubility thermodynamic", "setting": "[2]; MeOH/dichloromethane (1/1, organic solvent or mixture, thermodynamic from solid), MeOH/dichloromethane (DCM) (1/1, v/v)", "result": 317, "unit": "mg/mL"}, {"measurement": "solubility thermodynamic", "setting": "[2]; organic solvent or mixture, thermodynamic from solid, MeOH", "result": 42, "unit": "mg/mL"}, {"measurement": "final release of the total amount of API present in the films", "setting": "[3]; first screen", "result": "approximately 9%"}, {"measurement": "final release of the total amount of API present in the films", "setting": "[3]; second screen", "result": "approximately 9%"}, {"measurement": "solubility", "setting": "[4]; Acetone/EtOH (1/1, v/v)", "result": "> 100", "unit": "mg/mL"}, {"measurement": "solubility", "setting": "[4]; Acetone/EtOH (2/1, v/v)", "result": "> 100", "unit": "mg/mL"}, {"measurement": "solubility", "setting": "[4]; Acetone/H2O (9/1, v/v)", "result": "> 100", "unit": "mg/mL"}, {"measurement": "solubility", "setting": "[4]; Acetone/MeOH (2/1, v/v)", "result": "> 100", "unit": "mg/mL"}, {"measurement": "solubility", "setting": "[4]; EtOH/H2O (9/1, v/v), HPMC E5 added into co-solvent system directly", "result": "10 to 12.5", "unit": "mg/mL"}, {"measurement": "solubility", "setting": "[4]; MeOH", "result": 42, "unit": "mg/mL"}, {"measurement": "solubility", "setting": "[4]; MeOH/DCM (1/1, v/v)", "result": "> 100", "unit": "mg/mL"}, {"measurement": "Appearance", "setting": "[5]; 40° C./75% RH (closed), 1 M", "result": "T1"}, {"measurement": "Purity (%)", "setting": "[5]; 40° C./75% RH (closed), 1 M", "result": 98.96, "unit": "%"}, {"measurement": "Total impurity (%)", "setting": "[5]; 40° C./75% RH (closed), 1 M", "result": 1.04, "unit": "%"}, {"measurement": "Appearance", "setting": "[5]; 40° C./75% RH (closed), 2 M", "result": "T1"}, {"measurement": "Purity (%)", "setting": "[5]; 40° C./75% RH (closed), 2 M", "result": 98.94, "unit": "%"}, {"measurement": "Total impurity (%)", "setting": "[5]; 40° C./75% RH (closed), 2 M", "result": 1.05, "unit": "%"}, {"measurement": "Appearance", "setting": "[5]; 40° C./75% RH (closed), 2 W", "result": "T1"}, {"measurement": "Purity (%)", "setting": "[5]; 40° C./75% RH (closed), 2 W", "result": 98.95, "unit": "%"}, {"measurement": "Total impurity (%)", "setting": "[5]; 40° C./75% RH (closed), 2 W", "result": 1.05, "unit": "%"}, {"measurement": "Appearance", "setting": "[5]; 40° C./75% RH (closed), 3 M", "result": "T1"}, {"measurement": "Purity (%)", "setting": "[5]; 40° C./75% RH (closed), 3 M", "result": 98.95, "unit": "%"}, {"measurement": "Total impurity (%)", "setting": "[5]; 40° C./75% RH (closed), 3 M", "result": 1.05, "unit": "%"}, {"measurement": "Appearance", "setting": "[5]; 40° C./75% RH (open), 1 M", "result": "T1"}, {"measurement": "Purity (%)", "setting": "[5]; 40° C./75% RH (open), 1 M", "result": 98.94, "unit": "%"}, {"measurement": "Total impurity (%)", "setting": "[5]; 40° C./75% RH (open), 1 M", "result": 1.04, "unit": "%"}, {"measurement": "Appearance", "setting": "[5]; 40° C./75% RH (open), 2 M", "result": "T1"}, {"measurement": "Purity (%)", "setting": "[5]; 40° C./75% RH (open), 2 M", "result": 98.96, "unit": "%"}, {"measurement": "Total impurity (%)", "setting": "[5]; 40° C./75% RH (open), 2 M", "result": 1.04, "unit": "%"}, {"measurement": "Appearance", "setting": "[5]; 40° C./75% RH (open), 2 W", "result": "T1"}, {"measurement": "Purity (%)", "setting": "[5]; 40° C./75% RH (open), 2 W", "result": 98.95, "unit": "%"}, {"measurement": "Total impurity (%)", "setting": "[5]; 40° C./75% RH (open), 2 W", "result": 1.06, "unit": "%"}, {"measurement": "Appearance", "setting": "[5]; 40° C./75% RH (open), 3 M", "result": "T1"}, {"measurement": "Purity (%)", "setting": "[5]; 40° C./75% RH (open), 3 M", "result": 98.96, "unit": "%"}, {"measurement": "Total impurity (%)", "setting": "[5]; 40° C./75% RH (open), 3 M", "result": 1.05, "unit": "%"}]}]}
